From patent publication US7625841B2, “Substituted thiene-3-ylsulphonylamino(thio)carbonyltriazolin(ethi)ones” (Bayer CropScience AG, priority 2001, dated 2009)

Columns and labels:
Type in all cases: in vivo
Alopecurus [1] = experiment: Post-emergence test/greenhouse; details: greenhouse, application rate 15 gai/ha, rated after three weeks, 0%=no effect, 100%=total destruction
In short: (§1)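 Plants of 5-15 cm receive a foliar spray of water-diluted compound concentrate (acetone solvent, alkylaryl polyglycol ether emulsifier) dosed per unit area at 1000 l water/ha. Three weeks later, percentage damage compared with untreated controls is recorded, 100% meaning complete kill.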

Avena fatua [2] = experiment: Post-emergence test/greenhouse; details: greenhouse, application rate 15 gai/ha, rated after three weeks, 0%=no effect, 100%=total destruction
In short: as §1

Bromus [3] = experiment: Post-emergence test/greenhouse; details: greenhouse, application rate 15 gai/ha, rated after three weeks, 0%=no effect, 100%=total destruction
In short: as §1

Chenopodium [4] = experiment: Post-emergence test/greenhouse; details: greenhouse, application rate 15 gai/ha, rated after three weeks, 0%=no effect, 100%=total destruction
In short: as §1

Datura = experiment: Post-emergence test/greenhouse; details: greenhouse, application rate 15 gai/ha, rated after three weeks, 0%=no effect, 100%=total destruction
In short: as §1

Digitaria [5] = experiment: Post-emergence test/greenhouse; details: greenhouse, application rate 15 gai/ha, rated after three weeks, 0%=no effect, 100%=total destruction
In short: as §1

Echinochloa = experiment: Post-emergence test/greenhouse; details: greenhouse, application rate 15 gai/ha, rated after three weeks, 0%=no effect, 100%=total destruction
In short: as §1

Lolium [6] = experiment: Post-emergence test/greenhouse; details: greenhouse, application rate 15 gai/ha, rated after three weeks, 0%=no effect, 100%=total destruction
In short: as §1

Polygonum [7] = experiment: Post-emergence test/greenhouse; details: greenhouse, application rate 15 gai/ha, rated after three weeks, 0%=no effect, 100%=total destruction
In short: as §1

Setaria [8] = experiment: Post-emergence test/greenhouse; details: greenhouse, application rate 15 gai/ha, rated after three weeks, 0%=no effect, 100%=total destruction
In short: as §1

Viola = experiment: Post-emergence test/greenhouse; details: greenhouse, application rate 15 gai/ha, rated after three weeks, 0%=no effect, 100%=total destruction
In short: as §1

Xanthium [9] = experiment: Post-emergence test/greenhouse; details: greenhouse, application rate 15 gai/ha, rated after three weeks, 0%=no effect, 100%=total destruction
In short: as §1

maize [10] = experiment: Post-emergence test/greenhouse; details: greenhouse, application rate 15 gai/ha, rated after three weeks, 0%=no effect, 100%=total destruction
In short: as §1

rape = experiment: Post-emergence test/greenhouse; details: greenhouse, application rate 15 gai/ha, rated after three weeks, 0%=no effect, 100%=total destruction
In short: as §1

wheat [11] = experiment: Post-emergence test/greenhouse; details: greenhouse, application rate 15 gai/ha, rated after three weeks, 0%=no effect, 100%=total destruction
In short: as §1

Alopecurus [12] = experiment: Pre-emergence test/greenhouse; details: greenhouse, application rate 15 gai/ha, rated after three weeks, 0%=no effect, 100%=total destruction
In short: (§2)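 Damage scores (% of untreated control; 100% = total destruction) are taken at three weeks. The soil is treated by spraying 24 hours post-sowing, delivering the chosen dose per area in 1000 litres water per hectare.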

Avena fatua [13] = experiment: Pre-emergence test/greenhouse; details: greenhouse, application rate 15 gai/ha, rated after three weeks, 0%=no effect, 100%=total destruction
In short: as §2

Bromus [14] = experiment: Pre-emergence test/greenhouse; details: greenhouse, application rate 15 gai/ha, rated after three weeks, 0%=no effect, 100%=total destruction
In short: as §2

Chenopodium [15] = experiment: Pre-emergence test/greenhouse; details: greenhouse, application rate 15 gai/ha, rated after three weeks, 0%=no effect, 100%=total destruction
In short: as §2

Digitaria [16] = experiment: Pre-emergence test/greenhouse; details: greenhouse, application rate 15 gai/ha, rated after three weeks, 0%=no effect, 100%=total destruction
In short: as §2

Galium = experiment: Pre-emergence test/greenhouse; details: greenhouse, application rate 15 gai/ha, rated after three weeks, 0%=no effect, 100%=total destruction
In short: as §2

Lolium [17] = experiment: Pre-emergence test/greenhouse; details: Lolium, 504 h, greenhouse, application rate 15 gai/ha, rated after three weeks, 0%=no effect, 100%=total destruction, read-out: degree of damage to the plants, Lolium
In short: as §2

Matricaria = experiment: Pre-emergence test/greenhouse; details: Matricaria, 504 h, greenhouse, application rate 15 gai/ha, rated after three weeks, 0%=no effect, 100%=total destruction, read-out: degree of damage to the plants, Matricaria
In short: as §2

Polygonum [18] = experiment: Pre-emergence test/greenhouse; details: greenhouse, application rate 15 gai/ha, rated after three weeks, 0%=no effect, 100%=total destruction
In short: as §2

Setaria [19] = experiment: Pre-emergence test/greenhouse; details: greenhouse, application rate 15 gai/ha, rated after three weeks, 0%=no effect, 100%=total destruction
In short: as §2

Solanum = experiment: Pre-emergence test/greenhouse; details: greenhouse, application rate 15 gai/ha, rated after three weeks, 0%=no effect, 100%=total destruction
In short: as §2

Stellaria = experiment: Pre-emergence test/greenhouse; details: Stellaria, 504 h, greenhouse, application rate 15 gai/ha, rated after three weeks, 0%=no effect, 100%=total destruction, read-out: degree of damage to the plants, Stellaria
In short: as §2

Xanthium [20] = experiment: Pre-emergence test/greenhouse; details: Xanthium, 504 h, greenhouse, application rate 15 gai/ha, rated after three weeks, 0%=no effect, 100%=total destruction, read-out: degree of damage to the plants, Xanthium
In short: as §2

maize [21] = experiment: Pre-emergence test/greenhouse; details: Zea mays, 504 h, greenhouse, application rate 15 gai/ha, rated after three weeks, 0%=no effect, 100%=total destruction, read-out: degree of damage to the plants, maize
In short: as §2

soybeans = experiment: Pre-emergence test/greenhouse; details: greenhouse, application rate 15 gai/ha, rated after three weeks, 0%=no effect, 100%=total destruction
In short: as §2

wheat [22] = experiment: Pre-emergence test/greenhouse; details: Triticum aestivum, 504 h, greenhouse, application rate 15 gai/ha, rated after three weeks, 0%=no effect, 100%=total destruction, read-out: degree of damage to the plants, wheat
In short: as §2

Compound: CCCOc1nn(C(=O)NS(=O)(=O)c2c(C(=O)OC)csc2C)c(=O)n1C [(A), methyl 4-[[[(4,5-dihydro-4-methyl-5-oxo-3-n-propoxy-1H-1,2,4-triazol-1-yl)carbonyl]-amino]sulfonyl]-5-methyl-3-thiophenecarboxylate, reference compound]
- degree of damage to the plants, Alopecurus (Alopecurus [1]): 70%
- degree of damage to the plants, Avena fatua (Avena fatua [2]): 30%
- degree of damage to the plants, Bromus (Bromus [3]): 50%
- degree of damage to the plants, Chenopodium (Chenopodium [4]): 80%
- degree of damage to the plants, Datura (Datura): 50%
- degree of damage to the plants, Digitaria (Digitaria [5]): 10%
- degree of damage to the plants, Echinochloa (Echinochloa): 60%
- degree of damage to the plants, Lolium (Lolium [6]): 30%
- degree of damage to the plants, Polygonum (Polygonum [7]): 50%
- degree of damage to the plants, Setaria (Setaria [8]): 30%
- degree of damage to the plants, Viola (Viola): 30%
- degree of damage to the plants, Xanthium (Xanthium [9]): 70%
- degree of damage to the plants, maize (maize [10]): 30%
- degree of damage to the plants, rape (rape): 95%
- degree of damage to the plants, wheat (wheat [11]): 0%
- degree of damage to the plants, Alopecurus (Alopecurus [12]): 60%
- degree of damage to the plants, Avena fatua (Avena fatua [13]): 0%
- degree of damage to the plants, Bromus (Bromus [14]): 60%
- degree of damage to the plants, Chenopodium (Chenopodium [15]): 50%
- degree of damage to the plants, Digitaria (Digitaria [16]): 0%
- degree of damage to the plants, Galium (Galium): 10%
- pest or weed control at 15 g/ha (Lolium [17]): 0%
- pest or weed control at 15 g/ha (Matricaria): 50%
- degree of damage to the plants, Polygonum (Polygonum [18]): 0%
- degree of damage to the plants, Setaria (Setaria [19]): 0%
- degree of damage to the plants, Solanum (Solanum): 80%
- pest or weed control at 15 g/ha (Stellaria): 80%
- pest or weed control at 15 g/ha (Xanthium [20]): 0%
- plant injury at 15 g/ha (maize [21]): 0%
- degree of damage to the plants, soybeans (soybeans): 0%
- plant injury at 15 g/ha (wheat [22]): 0%
